Tests used:
[1] = test system: Bifidobacterium infantis JCM 1222; test: Assimilation test by intestinal microorganism; assay type: cell-based; settings: 0.5 w/v % saccharide in PYF broth, 37° C., 96 hours; free of sugar: -
[2] = test system: Bifidobacterium adolescentis JCM 1275; test: Assimilation test by intestinal microorganism; assay type: cell-based; settings: 0.5 w/v % saccharide in PYF broth, 37° C., 96 hours; free of sugar: -
[3] = test system: Peptostreptococcus prevotii ATCC 9321; test: Assimilation test by intestinal microorganism; assay type: cell-based; settings: 0.5 w/v % saccharide in PYF broth, 37° C., 96 hours; free of sugar: -
[4] = test system: Bacteroides vulgatus JCM 5826; test: Assimilation test by intestinal microorganism; assay type: cell-based; settings: 0.5 w/v % saccharide in PYF broth, 37° C., 96 hours; free of sugar: -
[5] = test system: Escherichia coli IFO 3301; test: Assimilation test by intestinal microorganism; assay type: cell-based; settings: 0.5 w/v % saccharide in PYF broth, 37° C., 96 hours; free of sugar: -
[6] = test system: Clostridium ramosum JCM 1298; test: Assimilation test by intestinal microorganism; assay type: cell-based; settings: 0.5 w/v % saccharide in PYF broth, 37° C., 96 hours; free of sugar: -
[7] = test system: Clostridium perfringens JCM 3816; assay type: cell-based; settings: 0.5 w/v % saccharide in PYF broth, 37° C., 96 hours; free of sugar: -
[8] = test system: Bifidobacterium bifidum JCM 1255; test: Assimilation test by intestinal microorganism; assay type: cell-based; settings: 0.5 w/v % saccharide in PYF broth, 37° C., 96 hours; free of sugar: -
[9] = test system: Lactobacillus plantarum IFO 3070; test: Assimilation test by intestinal microorganism; assay type: cell-based; settings: 0.5 w/v % saccharide in PYF broth, 37° C., 96 hours; free of sugar: -
[10] = test system: Bifidobacterium breve JCM 1192; test: Assimilation test by intestinal microorganism; assay type: cell-based; settings: 0.5 w/v % saccharide in PYF broth, 37° C., 96 hours; free of sugar: -
[11] = test system: Bifidobacterium longum JCM 1217; test: Assimilation test by intestinal microorganism; assay type: cell-based; settings: 0.5 w/v % saccharide in PYF broth, 37° C., 96 hours; free of sugar: -
[12] = test system: Clostridium butyricum JCM 1391; assay type: cell-based; settings: 0.5 w/v % saccharide in PYF broth, 37° C., 96 hours; free of sugar: -
[13] = test system: Streptococcus faecalis IAM 10065; test: Assimilation test by intestinal microorganism; assay type: cell-based; settings: 0.5 w/v % saccharide in PYF broth, 37° C., 96 hours; free of sugar: -
[14] = test system: Eubacterium aerofaciens ATCC 25986; test: Assimilation test by intestinal microorganism; assay type: cell-based; settings: 0.5 w/v % saccharide in PYF broth, 37° C., 96 hours; free of sugar: -
[15] = test system: Bifidobacterium animalis JCM 1190; test: Assimilation test by intestinal microorganism; assay type: cell-based; settings: 0.5 w/v % saccharide in PYF broth, 37° C., 96 hours; free of sugar: -
[16] = test system: Bacteroides uniformis JCM 5828; test: Assimilation test by intestinal microorganism; assay type: cell-based; settings: 0.5 w/v % saccharide in PYF broth, 37° C., 96 hours; free of sugar: -
[17] = test system: Bacteroides distasonis JCM 5825; test: Assimilation test by intestinal microorganism; assay type: cell-based; settings: 0.5 w/v % saccharide in PYF broth, 37° C., 96 hours; free of sugar: -
[18] = test system: Lactobacillus fermentum IFO 3959; test: Assimilation test by intestinal microorganism; assay type: cell-based; settings: 0.5 w/v % saccharide in PYF broth, 37° C., 96 hours; free of sugar: -
[19] = test system: Streptococcus sobrinus ATCC 27351; test: Acid formation by dental caries-inducing microorganisms; settings: for pH at each fermentation time (min): living wet cells, 0.02M saccharide, Stephen buffer pH 7.0, 37° C.
[20] = Maillard reaction (coloration with glycine); assay type: physicochemical; settings: 10 w/v % saccharide, one w/v % glycine, 50 mM phosphate buffer pH 7.0, 100° C. for 90 min, 1-cm light-path cell
Pancreatic juice amylase = target: T1, Pancreatic juice amylase (Homo sapiens, UniProt P04746); test: in vitro
T1 sequence (P04746 16-511): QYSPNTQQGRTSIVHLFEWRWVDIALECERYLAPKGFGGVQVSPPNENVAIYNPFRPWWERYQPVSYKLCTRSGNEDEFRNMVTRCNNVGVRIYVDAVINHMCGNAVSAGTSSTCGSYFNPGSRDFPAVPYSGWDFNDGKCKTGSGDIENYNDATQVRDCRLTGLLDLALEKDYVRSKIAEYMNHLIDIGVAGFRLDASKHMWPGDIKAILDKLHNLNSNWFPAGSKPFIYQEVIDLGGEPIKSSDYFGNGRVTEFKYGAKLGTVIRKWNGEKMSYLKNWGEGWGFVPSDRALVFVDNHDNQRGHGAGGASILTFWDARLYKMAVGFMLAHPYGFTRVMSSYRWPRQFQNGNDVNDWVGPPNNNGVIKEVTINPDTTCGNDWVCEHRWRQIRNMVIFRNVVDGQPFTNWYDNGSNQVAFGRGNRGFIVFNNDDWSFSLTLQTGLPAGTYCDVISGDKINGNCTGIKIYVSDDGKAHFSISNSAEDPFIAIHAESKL

Acute toxicity test = assay type: in vivo; settings: oral, mice; for LD50: mouse, in vivo
Excerpt: As a result, no mouse died even when administered with a highest possible dose. This means that the LD50 is 50 g/kg mouse or more and concludes that it is extremely low in toxicity.

Salivary amylase = target: T2, Salivary amylase (Homo sapiens, UniProt P0DUB6); test: in vitro
T2 sequence (P0DUB6 16-511): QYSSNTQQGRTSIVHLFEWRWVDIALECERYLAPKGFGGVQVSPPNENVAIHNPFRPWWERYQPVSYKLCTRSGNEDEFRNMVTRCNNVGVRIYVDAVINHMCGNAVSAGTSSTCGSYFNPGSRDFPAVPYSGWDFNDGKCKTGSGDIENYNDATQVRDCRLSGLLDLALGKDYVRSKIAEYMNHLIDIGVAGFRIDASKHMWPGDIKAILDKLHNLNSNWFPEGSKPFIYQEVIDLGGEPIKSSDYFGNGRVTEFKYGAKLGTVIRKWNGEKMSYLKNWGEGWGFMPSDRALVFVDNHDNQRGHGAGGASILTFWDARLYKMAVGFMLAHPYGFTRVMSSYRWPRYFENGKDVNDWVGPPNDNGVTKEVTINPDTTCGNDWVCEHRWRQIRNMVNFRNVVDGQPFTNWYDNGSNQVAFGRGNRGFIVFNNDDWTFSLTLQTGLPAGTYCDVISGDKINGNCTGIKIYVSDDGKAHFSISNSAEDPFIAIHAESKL

in vitro = settings: gastric acid

## O=C[C@H](O)[C@@H](O)[C@H](O)[C@H](O)CO [glucose, reference compound]
[1]
  Judgement of assimilation (turbidity at 750 nm, ×5): ++ (0.2 or higher but less than 0.3)
[2]
  Judgement of assimilation (turbidity at 750 nm, ×5): +++ (0.3 or higher)
[3]
  Judgement of assimilation (turbidity at 750 nm, ×5): + (0.15 or higher but less than 0.2)
[4]
  Judgement of assimilation (turbidity at 750 nm, ×5): + (0.15 or higher but less than 0.2)
[5]
  Judgement of assimilation (turbidity at 750 nm, ×5): + (0.15 or higher but less than 0.2)
[6]
  Judgement of assimilation (turbidity at 750 nm, ×5): + (0.15 or higher but less than 0.2)
[7]
  Judgement of assimilation (turbidity at 750 nm, ×5): +++ (0.3 or higher)
[8]
  Judgement of assimilation (turbidity at 750 nm, ×5): ++ (0.2 or higher but less than 0.3)
[9]
  Judgement of assimilation (turbidity at 750 nm, ×5): ++ (0.2 or higher but less than 0.3)
[10]
  Judgement of assimilation (turbidity at 750 nm, ×5): ++ (0.2 or higher but less than 0.3)
[11]
  Judgement of assimilation (turbidity at 750 nm, ×5): +++ (0.3 or higher)
[12]
  Judgement of assimilation (turbidity at 750 nm, ×5): +++ (0.3 or higher)
[13]
  Judgement of assimilation (turbidity at 750 nm, ×5): ++ (0.2 or higher but less than 0.3)
[14]
  Judgement of assimilation (turbidity at 750 nm, ×5): +++ (0.3 or higher)
[15]
  Judgement of assimilation (turbidity at 750 nm, ×5): +++ (0.3 or higher)
[16]
  Judgement of assimilation (turbidity at 750 nm, ×5): ++ (0.2 or higher but less than 0.3)
[17]
  Judgement of assimilation (turbidity at 750 nm, ×5): ++ (0.2 or higher but less than 0.3)
[18]
  Judgement of assimilation (turbidity at 750 nm, ×5): ++ (0.2 or higher but less than 0.3)

## OC[C@H]1O[C@@](CO)(O[C@H]2O[C@H](CO)[C@@H](O)[C@H](O)[C@H]2O)[C@@H](O)[C@@H]1O [Sucrose, reference compound]
[19]
  pH reduction / acid fermentation, in words: rapid
[19]; 0 min
  pH at each fermentation time (min): 7.0
[19]; 5 min
  pH at each fermentation time (min): 4.3
[19]; 15 min
  pH at each fermentation time (min): 4.1
[19]; 30 min
  pH at each fermentation time (min): 4.0
[19]; 60 min
  pH at each fermentation time (min): 4.0
[19]; 90 min
  pH at each fermentation time (min): 4.0

## OC[C@H]1O[C@H](OC[C@H]2O[C@H](OC[C@H]3O[C@H](OC[C@H]4OC(O)[C@H](O)[C@@H](O)[C@@H]4O)[C@H](O)[C@@H](O)[C@@H]3O)[C@H](O)[C@@H](O)[C@@H]2O)[C@H](O)[C@@H](O)[C@@H]1O (stereo partly drawn) [Isomaltotetraose, isomaltotetraose, reference compound]
[20]
  Coloration degree (at a wavelength of 480 nm): 0.495

## OC[C@H]1O[C@H](OC[C@H]2O[C@H](OC[C@H]3O[C@H](O[C@H]4O[C@H](CO)[C@@H](O)[C@H](O)[C@H]4O)[C@H](O)[C@@H](O)[C@@H]3O)[C@H](O)[C@@H](O)[C@@H]2O)[C@H](O)[C@@H](O)[C@@H]1O [α-Isomaltotriosyl α-glucoside, O-α-D-glucopyranosyl-(1→6)-O-α-D-glucopyranosyl-(1→6) α-D-glucopyranosyl α-D-glucopyranoside]
Pancreatic juice amylase
  metabolised: 0.5%
[3]
  Judgement of assimilation (turbidity at 750 nm, ×5): ± (0.1 or higher but less than 0.15)
Acute toxicity test
  LD50: ≥ 50000 mg/kg
[12]
  Judgement of assimilation (turbidity at 750 nm, ×5): +++ (0.3 or higher)

## OC[C@H]1O[C@H](O[C@H]2[C@H](O)[C@@H](O)C(O)O[C@@H]2CO)[C@H](O)[C@@H](O)[C@@H]1O (mixture of isomers) [Maltose, reference compound]
Pancreatic juice amylase
  metabolised: 0.2%
Salivary amylase
  metabolised: 0%
In vitro
  degraded: 0%

## OC[C@H]1O[C@H](OC[C@H]2O[C@H](OC[C@H]3OC(O)[C@H](O)[C@@H](O)[C@@H]3O)[C@H](O)[C@@H](O)[C@@H]2O)[C@H](O)[C@@H](O)[C@@H]1O (stereo partly drawn) [Isomaltotriose, isomaltotriose, reference compound]
[20]
  Coloration degree (at a wavelength of 480 nm): 0.642

## OC[C@H]1O[C@H](OC[C@H]2O[C@H](O[C@H]3O[C@H](CO)[C@@H](O)[C@H](O)[C@H]3O)[C@H](O)[C@@H](O)[C@@H]2O)[C@H](O)[C@@H](O)[C@@H]1O [O-α-D-glucopyranosyl -(1→6)-α-D-glucopyranosyl α-D-glucopyranoside]
Pancreatic juice amylase
  metabolised: 0.5%
[3]
  Judgement of assimilation (turbidity at 750 nm, ×5): ± (0.1 or higher but less than 0.15)
[7]
  Judgement of assimilation (turbidity at 750 nm, ×5): + (0.15 or higher but less than 0.2)
Acute toxicity test
  LD50: ≥ 50000 mg/kg
  Mortality at a highest possible dose: no mouse died
[11]
  Judgement of assimilation (turbidity at 750 nm, ×5): +++ (0.3 or higher)

## OC[C@H]1O[C@H](OC[C@H]2O[C@H](O[C@H]3O[C@H](CO[C@H]4O[C@H](CO)[C@@H](O)[C@H](O)[C@H]4O)[C@@H](O)[C@H](O)[C@H]3O)[C@H](O)[C@@H](O)[C@@H]2O)[C@H](O)[C@@H](O)[C@@H]1O [α-Isomaltosyl α-isomaltoside, O-α-D-glucopyranosyl -(1→6)-α-D-glucopyranosyl-O-α-D-glucopyranosyl-(1→6) -α-D-glucopyranoside]
Solubility in solvent; chloroform and ethyl acetate
  Solubility in solvent: Insoluble
Solubility in solvent; methanol and ethanol
  Solubility in solvent: Hardly soluble
Pancreatic juice amylase
  metabolised: 0.3%
[3]
  Judgement of assimilation (turbidity at 750 nm, ×5): ± (0.1 or higher but less than 0.15)
[7]
  Judgement of assimilation (turbidity at 750 nm, ×5): - (Less than 0.1)
Acute toxicity test
  LD50: ≥ 50000 mg/kg
[11]
  Judgement of assimilation (turbidity at 750 nm, ×5): +++ (0.3 or higher)
[12]
  Judgement of assimilation (turbidity at 750 nm, ×5): +++ (0.3 or higher)

Source: US5858992A, “Non-reducing saccharides, their preparation and use” (Kabushiki Kaisha Hayashibara Seibutsu Kagaku Kenkyujo, priority 1995, dated 1999)
